Laboratory results reported in ChEMBL document CHEMBL1909046, “DrugMatrix in vitro pharmacology data”.

Assays:
Leukotriene C4 synthase = molecular target: T1, Leukotriene C4 synthase (Cavia porcellus, UniProt A6XA80); assay: biochemical; type: tissue-based, Lung;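 also: enzyme inhibition assay of leukotriene C4 synthase, using LTA4 as the substrate; in other assays of this panel Not Active means under 50% inhibition at 10 µM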
T1 sequence (A6XA80 whole entry): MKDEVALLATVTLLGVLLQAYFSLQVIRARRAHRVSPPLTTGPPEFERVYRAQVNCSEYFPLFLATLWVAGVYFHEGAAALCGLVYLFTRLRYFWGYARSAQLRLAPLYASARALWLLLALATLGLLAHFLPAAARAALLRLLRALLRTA

Acetylcholinesterase = Acetylcholinesterase (Homo sapiens, UniProt P22303); assay: DRUGMATRIX: Acetylcholinesterase enzyme inhibition (substrate: acetylthiocholine); type: cell-based, HEK293; conditions: hek293; Not Active = under 50% inhibition at 10 µM
[1] = molecular target: Delta-type opioid receptor (Homo sapiens, UniProt P41143); type: cell membranes, HEK293, Membrane; conditions: hek293; also: in other assays of this panel Not Active means under 50% inhibition at 10 µM
[2] = molecular target: 5-hydroxytryptamine receptor 1B (Rattus norvegicus, UniProt P28564); type: cell membranes, Wistar, Cerebral cortex, Membrane; also: in other assays of this panel Not Active means under 50% inhibition at 10 µM
[3] = DRUGMATRIX: Leukotriene, BLT (LTB4) radioligand binding (ligand: [3H]LTB4); type: cell membranes, Membrane; conditions: u-937; Not Active = under 50% inhibition at 10 µM
[4] = molecular target: T2, Neuropeptide Y receptor type 2 (Homo sapiens, UniProt P49146); type: cell membranes, Membrane; conditions: kan-ts; also: in other assays of this panel Not Active means under 50% inhibition at 10 µM
T2 sequence (P49146 whole entry): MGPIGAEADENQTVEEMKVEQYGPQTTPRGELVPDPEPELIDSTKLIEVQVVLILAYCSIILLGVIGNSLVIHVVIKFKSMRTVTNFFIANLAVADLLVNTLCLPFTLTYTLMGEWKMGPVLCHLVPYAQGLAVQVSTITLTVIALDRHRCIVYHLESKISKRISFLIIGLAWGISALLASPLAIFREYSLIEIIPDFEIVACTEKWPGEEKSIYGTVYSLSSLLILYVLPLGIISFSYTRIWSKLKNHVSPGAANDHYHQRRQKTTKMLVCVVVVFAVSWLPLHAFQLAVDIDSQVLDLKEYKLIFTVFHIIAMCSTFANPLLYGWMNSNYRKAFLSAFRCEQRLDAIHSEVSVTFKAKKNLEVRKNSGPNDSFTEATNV

Chain of Delta-type opioid receptor (P41143 whole entry): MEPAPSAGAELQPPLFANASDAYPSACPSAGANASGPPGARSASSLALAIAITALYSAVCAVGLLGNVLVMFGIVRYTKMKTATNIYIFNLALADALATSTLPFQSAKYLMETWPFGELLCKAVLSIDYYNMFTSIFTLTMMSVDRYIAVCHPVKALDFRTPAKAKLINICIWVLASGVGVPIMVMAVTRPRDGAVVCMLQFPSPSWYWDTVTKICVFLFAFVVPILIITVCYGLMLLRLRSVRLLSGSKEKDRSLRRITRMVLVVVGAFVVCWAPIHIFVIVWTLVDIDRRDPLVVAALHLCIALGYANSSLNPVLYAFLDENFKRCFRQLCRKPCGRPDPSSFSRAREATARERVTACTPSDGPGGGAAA
Chain of Acetylcholinesterase (P22303 whole entry): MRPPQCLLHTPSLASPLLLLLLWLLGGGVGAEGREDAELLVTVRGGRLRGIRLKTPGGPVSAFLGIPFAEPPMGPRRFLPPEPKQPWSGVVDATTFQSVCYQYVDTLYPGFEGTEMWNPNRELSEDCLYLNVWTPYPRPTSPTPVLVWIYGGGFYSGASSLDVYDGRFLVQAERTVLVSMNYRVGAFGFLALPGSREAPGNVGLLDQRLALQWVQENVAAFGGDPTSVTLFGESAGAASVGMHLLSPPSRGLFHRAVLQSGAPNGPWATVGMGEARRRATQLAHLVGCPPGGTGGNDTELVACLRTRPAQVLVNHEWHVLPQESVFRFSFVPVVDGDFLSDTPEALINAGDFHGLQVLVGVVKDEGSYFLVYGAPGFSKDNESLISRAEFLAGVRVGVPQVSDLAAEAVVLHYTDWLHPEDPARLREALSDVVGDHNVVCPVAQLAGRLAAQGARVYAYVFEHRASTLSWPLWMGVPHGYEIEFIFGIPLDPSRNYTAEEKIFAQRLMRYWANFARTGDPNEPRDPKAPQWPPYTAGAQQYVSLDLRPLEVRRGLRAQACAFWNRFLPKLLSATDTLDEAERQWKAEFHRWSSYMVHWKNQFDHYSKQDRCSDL
Chain of 5-hydroxytryptamine receptor 1B (P28564 whole entry): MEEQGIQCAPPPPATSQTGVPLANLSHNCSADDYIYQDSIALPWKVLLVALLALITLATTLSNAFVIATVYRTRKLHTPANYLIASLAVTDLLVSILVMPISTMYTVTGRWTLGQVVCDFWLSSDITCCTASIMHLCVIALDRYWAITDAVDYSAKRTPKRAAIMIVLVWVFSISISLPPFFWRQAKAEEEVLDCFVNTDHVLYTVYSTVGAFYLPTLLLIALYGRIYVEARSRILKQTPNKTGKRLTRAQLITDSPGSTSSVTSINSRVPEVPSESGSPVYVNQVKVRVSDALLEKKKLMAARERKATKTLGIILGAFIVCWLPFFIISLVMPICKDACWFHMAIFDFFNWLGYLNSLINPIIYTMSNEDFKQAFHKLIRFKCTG

Row | Structure (SMILES) | IC50 (Leukotriene C4 synthase) | IC50 (Acetylcholinesterase) | IC50 [1] | IC50 [2] | IC50 [3] | Ki [3] | IC50 [4] | IC50 ([2]; read-out: IC50) [nM] | Ki ([2]; read-out: Ki) [nM]
1 | Oc1ncnc2[nH]ncc12 [ALLOPURINOL] | Not Active | Not Active | Not Active | Not Active | Not Active | Not Active | Not Active |  | 
2 | Cc1cc(C(C)(C)C)c(O)c(C)c1CC1=NCCN1 [OXYMETAZOLINE] | Not Active | Not Active | Not Active |  | Not Active | Not Active | Not Active | 2 | 0.909
3 | CC(C)Cn1cnc2c(N)nc3ccccc3c21 [IMIQUIMOD] | Not Active | Not Active | Not Active | Not Active | Not Active | Not Active | Not Active |  | 
4 | NS(=O)(=O)c1cc(C(=O)O)c(NCc2ccco2)cc1Cl [FUROSEMIDE] | Not Active | Not Active | Not Active | Not Active | Not Active | Not Active | Not Active |  | 
